“And” between values parts separate entries of the source, which are not always exact repeats. Equal entries are not always repeated. Where two headings read alike, the source gives them in different places.
How the values were obtained:
[1] = target: N-methyl-D-aspartate receptors (NMDARs); settings: read-out: model-predicted IC50; [Ca2+] = 2.5 mM, Vm = −70 mV
Source text: To obtain the voltage-dependence of NMDAR block by TCAs, the concentration-ihibition curves were generated at three membrane holding potentials Vm = −100, −70, and −30 mV. The obtained values were fitted with the modified by incorporating the dependence of NMDAR inhibition on [Ca^2+] ([Stepanenko et al., 2019]) Woodhull equation: IC50(Vm[Ca^2+])=IC50(0 mV)·exp(VmzδF/RT)·exp(-[Ca^2+]/X) (6) where IC50 (0 mV) and δ were set as free parameters. IC50 (0 mV) is the value of IC50 at Vm = 0 mV, δ is the fraction of the membrane voltage field exerting force on TCA at its binding site. z = 1 is a molecule electric charge for both DES and CLO. For Faraday constant, gas constant, and room temperature of 28°C, the RT/F ≈ 26 mV. RT/(zδF) is equal to Vm, producing an e-fold change of IC50, and X is equal to [Ca^2+], producing an e-fold change of IC50.
The model is described by Eq. 6 IC50 (Vm, [Ca^2+]) = IC50 (0 mV) • exp (Vm/(e-fold change Vm)) • exp (- [Ca^2+]/(e-fold change [Ca^2+])). The dependences of TCA IC50s on [Ca^2+] […]
FIGURE 7 Predicted IC50 values for NMDAR inhibition by tricyclic antidepressants as a function of membrane voltage (Vm) and external [Ca^2+]. […] The IC50s were calculated as IC50(Vm, [Ca^2+]) = IC50(0 mV) · exp (Vm/Y) ·exp(-[Ca^2+]/X), where X is equal to the [Ca^2+] value required for an e-fold change of IC50, and Y is equal to the Vm value required for an e-fold change of IC50.

NMDARs = settings: cited from earlier work
[2] = tested on: N-methyl-D-aspartate receptors (NMDARs); settings: for δ, fraction of the membrane electric field to the binding site: Woodhull model, from the outside
Method: All procedures on animals were performed in accordance with the guide of the Federation for Laboratory Animal Science Associations (FELASA) and were approved by the Animal Care and Use Committees of Sechenov Institute. Briefly, 17 days pregnant Wistar rats (supplied by the Sechenov Institute Animal Facility) were sacrificed by 1 min CO2 inhalation in a plastic box connected to a CO2 tank. Fetuses were removed, and then primary cultures of rat cortical neurons were prepared using conventional procedures as described earlier ([Antonov and Johnson 1996]; [Mironova et al., 2007]). Neurons were grown in Neurobasal culture medium supplemented with B-27 (Gibco-Invitrogen, United Kingdom) on 7 mm glass coverslips coated with poly-D-lysine and were used for experiments after 10–14 days in culture ([Mironova et al., 2007]; [Han and Stevens 2009]).
Whole-cell currents were recorded from cultured rat cortical neurons using a MultiClamp 700B patch-clamp amplifier. Recordings were low-pass filtered at 400 Hz and digitized at the acquisition rate of 20,000 samples per second by Digidata 1440A controlled by pClamp v10.6 software (Molecular Devices). Solution exchange was performed by means of a fast solution application system as described earlier ([Sibarov et al., 2015]). Unless otherwise specified, the external bathing solution contained (in mM): 144 NaCl; 2.8 KCl; 1.0 CaCl2; 10 HEPES, at pH 7.2–7.4, osmolarity 310 mOsm. The intrapipette solution contained (in mM): 120 CsF, 10 CsCl, 10 EGTA, and 10 HEPES, osmolarity 300 mOsm, with pH adjusted to 7.4 with CsOH. Patch pipettes of 4–6 MΩ were pulled from Sutter BF150-89-10 borosilicate capillaries. Experiments were performed at 22–25°C. Under control conditions, neurons were voltage clamped at −70 mV. Data are reported without corrections for liquid junction potential, which was measured as −11 mV. To activate NMDARs, 100 µM NMDA was always co-applied with 10 µM glycine as co-agonist. Some experiments were performed on neurons loaded with BAPTA. To load BAPTA, cortical neuron cultures were incubated in a bathing solution containing 5 µM BAPTA-AM for 1 h.
To determine the blocking potency of TCAs, NMDA elicited currents were measured in the absence and presence of different TCA concentrations ([B]). Amplitudes of currents measured in the presence of blocker (Ib) were normalized to maximal current response in control (Ic). The IC50 is the concentration of TCA that cause 50% of the maximal inhibition of currents, and the Hill coefficient (h) were estimated by fitting concentration-inhibition curves with the Hill equation: Ib/Ιc=1/(1+[Β]^h/ΙC50h) (1)
To obtain the voltage-dependence of NMDAR block by TCAs, the concentration-ihibition curves were generated at three membrane holding potentials Vm = −100, −70, and −30 mV. The obtained values were fitted with the modified by incorporating the dependence of NMDAR inhibition on [Ca^2+] ([Stepanenko et al., 2019]) Woodhull equation: IC50(Vm[Ca^2+])=IC50(0 mV)·exp(VmzδF/RT)·exp(-[Ca^2+]/X) (6) where IC50 (0 mV) and δ were set as free parameters. […] For Faraday constant, gas constant, and room temperature of 28°C, the RT/F ≈ 26 mV. RT/(zδF) is equal to Vm, producing an e-fold change of IC50, and X is equal to [Ca^2+], producing an e-fold change of IC50.

[3] = set-up: method as in Stern et al., 1980; McTavish and Benfield 1990; settings: ref Stern et al., 1980; McTavish and Benfield 1990; cited from earlier work
NMDAR channels = tested on: NMDAR channels; set-up: method as in Reynolds and Miller 1988; settings: ref Reynolds and Miller 1988; cited from earlier work
[4] = tested on: N-methyl-D-aspartate receptors (NMDARs); assay: Kinetics of NMDAR open-channel block and trapping block (block/unblock relaxations, AP5 washout protocol); type: cell-based, rat
Method: Experiments were performed at 22–25°C.
NMDAR current relaxations during block or unblock by TCA were fit with the single exponential equation: I =(Imax-Imin)·exp (-t/τ)+Imin (2) where Imax and Imin are maximal and minimal amplitudes of currents during relaxations and τ represents the time constant of the exponential component during block onset (τon) or offset (unblock, τoff). From these measurements, the rate constants of block (k^+) and unblock (k^−) was estimated. k^+ was obtained from τon measured at 20 and 90 μM DES (C1 and C2 respectively) using the equation: k^+=(1 /τonC2-1/τonC1)/(C2 - C1) (3)
The k^− was the reciprocal to measured τoff: k^-=1 /τoff (4)
The equilibrium dissociation constant (Kd) for DES was calculated as follows: Kd=k^-/ k^+ (5)
The rise time of currents activated by the testing NMDA + Gly application in trapping channel block experiments was fitted in ClampFit (pClamp, Axon Instruments) using the double exponential function: I=I1·exp(-t/τ1)+I2·exp(-t/τ2)- C (7) where I1 and I2 are amplitudes of the exponential and τ1 and τ2 are time constants of the exponential and C equals I1 + I2 + Ib.
To study the kinetics of open-channel block of NMDARs by DES, we performed experiments at a single Vm = −70 mV using a Ca^2+-free bathing solution to avoid the influence of the Ca^2+-dependent process. DES was applied at a steady state of NMDAR currents at high (90 μM) or low (20 μM) concentrations (Figure 4A). DES-induced block corresponds well to basic predictions of an open-channel block. The block onset (τon) and offset (τoff) were well fit by a single exponential function (Eq. 2). […] The rate constants of block and unblock calculated on the basis of Eqs 3, 4 were k^+ = 0.008 ± 0.002 s^−1 μM^−1; k^− = 0.039 ± 0.005 s^−1, correspondently.
The absence in records of “tail currents” upon the simultaneous removal of agonists and a blocker may speak in favor of trapping of the blocking molecule inside of the pore ([Costa and Albuquerque 1994]; [Vorobjev and Sharonova 1994]; [Benveniste and Mayer 1995]; [Sobolevsky et al., 1999]). We, therefore, further tested the possibility of trapping of DES in the pore of NMDARs by the channel closure. A series of experiments were carried out following the protocol used previously for ATL ([Stepanenko et al., 2019]). After reaching an equilibrium of NMDA-mediated currents, 90 μM DES was applied to the cell for 10 s until the development of a stable block with a small amount of residual current (Ib) (Figure 4C). […] Single exponential approximation of the data at Figure 4E (dashed line) elicits the time constant of 7.7 ± 1.8 s for DES escape from trapping, representing the quantitative characteristic of DES partial trapping block.

## CN(C)CCC=C1c2ccccc2CCc2ccccc21 [ATL, amitriptyline]
[1]
  IC50: 1.6 µM
NMDARs; ref Stepanenko et al., 2019
  e-fold change Vm: 54 mV
  e-fold change [Ca2+]: 0.63 mM
  time constant of escape from trapping block: about 1.2 s
  δ, fraction of the membrane electric field: 0.51
NMDARs; ref Stepanenko et al., 2019, read-out: IC50(0 mV)
  IC50: 321 µM

## CN(C)CCCN1c2ccccc2CCc2ccc(Cl)cc21 [CLO, clomipramine]
[2]
  δ, fraction of the membrane electric field to the binding site: 0.51
[3]
  therapeutic blood concentrations: 0.3 to 1 µM

## CNCCCN1c2ccccc2CCc2ccccc21 [DES, desipramine]
NMDAR channels
  concentration displacing MK-801 from the NMDAR channels: 7.41 µM
[1]
  IC50: 0.13 µM
[2]
  fold drop of IC50 on increasing extracellular [Ca2+] from 0 to 1 mM: 5 fold
  fold smaller Vm shift for an e-fold change of IC50 than ATL or CLO: ~1.5 folds
  δ, fraction of the membrane electric field to the binding site: 0.71
[2]; based on IC50 (0 mV)
  open-channel block potency relative to ATL: about 5 folds
[2]; fit with Eq. 6
  e-fold change Vm (Vm shift giving an e-fold change of IC50): 37 ± 3.4 mV and 37 mV and 36.9 ± 3.4 mV
[2]; fit with Eq. 6, Vm = −70 mV
  e-fold change [Ca2+] ([Ca2+] shift giving an e-fold change of IC50): 590 µM and 590 ± 70 µM
[2]; read-out: IC50(0 mV), value of IC50 at Vm = 0 mV from fit with Eq. 6 (Woodhull)
  IC50: 60 ± 5.7 µM
[2]; read-out: IC50 of the inhibition of NMDAR currents, Vm = −30 mV, [Ca2+] = 0
  IC50: 27 µM
[2]; read-out: IC50 of the inhibition of NMDAR currents, Vm = −30 mV, [Ca2+] = 1 mM
  IC50: 4.85 µM
[2]; read-out: IC50 of the inhibition of NMDAR currents, Vm = −70 mV, [Ca2+] = 0
  IC50: 8.3 µM
[2]; read-out: IC50 of the inhibition of NMDAR currents, Vm = −70 mV, [Ca2+] = 1 mM
  IC50: 1.75 µM
[2]; read-out: IC50 of the inhibition of NMDAR currents, Vm = −70 mV, [Ca2+] = 4 mM
  IC50: 1.8 µM and 1.81 µM
[2]; read-out: IC50 of the inhibition of NMDAR currents, Vm = −100 mV, [Ca2+] = 1 mM
  IC50: 0.89 µM
[2]; regardless of extracellular calcium
  fold IC50 decrease with Vm shift from −30 to −100 mV: 5.4 fold
[4]
  fold lesser rate of dissociation from channels than ATL: about 5 folds
[4]; Vm = −70 mV, Ca2+-free solution, 1/τoff
  rate constant of unblock k−: 0.039 ± 0.005 s⁻¹
[4]; Vm = −70 mV, Ca2+-free solution, from τon at 20 and 90 μM
  rate constant of block k+: 8000 ± 2000 M⁻¹ s⁻¹
[4]; Vm = −70 mV, Ca2+-free solution, read-out: equilibrium dissociation constant Kd = k−/k+
  Kd: 4.7 ± 1.9 µM
NMDARs; 5 μM NMDA, physiological extracellular Ca2+, ref Sernagor et al., 1989
  e-fold change Vm: 36 mV
NMDARs; 5 μM NMDA, physiological extracellular Ca2+, ref Sernagor et al., 1989, read-out: IC50
  IC50: 9.8 µM
NMDARs; Vm = −70 mV, extracellular Ca2+ present, 100 μM NMDA, ref Barygin et al., 2017, read-out: IC50
  IC50: 1.4 µM
NMDARs; Vm = −70 mV, extracellular Ca2+ present, 100 μM NMDA, ref Nothdurfter et al., 2013, read-out: IC50
  IC50: 2.7 µM
NMDARs; varying experimental conditions, ref Reynolds and Miller 1988, Sernagor et al., 1989, Nothdurfter et al., 2013, Barygin et al., 2017, read-out: IC50 values reported for NMDAR inhibition
  IC50: 1.4 to 9.8 µM

Reference: PMC8882908, “Tricyclic Antidepressant Structure-Related Alterations in Calcium-Dependent Inhibition and Open-Channel Block of NMDA Receptors” (Frontiers in Pharmacology, 2022)
